Measurements: patent publication US5480971A, “Peralkylated oligopeptide mixtures” (Houghten Pharmaceuticals, Inc., priority 1994, dated 1996)
≈ marks a conversion by molar mass, not a printed value. Square brackets hold non-standard residues; d marks the D form. Ends that are not written are not given here. Peptide text beside a SMILES is read from it. * marks the point of attachment. X1 = C[N+](C)(C)[C@@H](Cc1ccccc1)C(=O)*; X2 = CC(C)C[C@@H](C(=O)*)[N+](C)(C)C; NMeF = CN[C@@H](Cc1ccccc1)C(=O)O; NMeI = CC[C@H](C)[C@H](NC)C(=O)O

What was measured:
[1] = test system: Staphylococcus aureus (ATCC 29213); assay: microbe, parasite or virus in culture; conditions: for MIC: Staphylococcus aureus, ATCC29213, read-out: MIC Value; for MIC Value: Table 4, minimum concentration needed to inhibit about 100 percent bacterial growth; for S. aureus MIC: no change in OD620 between time 0 and 21 hours; for S. aureus IC50: Example 8, individual peptides
Protocol: Concentrations of those 5X permethylated peptide mixtures that inhibited cellular growth by 50 percent (IC50) values were determined.
This culture was reinoculated and incubated at 37° C. to reach the exponential phase of bacterial growth; i.e., a final bacterial suspension containing about 10^5 to 5×10^5 colony-forming units (CFU)/ml. The concentration of cells was established by plating 100 μl of different dilutions of the culture solution (e.g., 10^-2, 10^-3 and 10^-4) onto solid agar plates. Following an overnight (about 18 hours) incubation at 37° C., the CFU thus formed were counted on each agar plate.
96-Well tissue culture plates were utilized, with eight wells per plate containing only medium as control blanks, whereas eight other wells contained medium plus cells as a positive growth control. These controls were used to detect possible medium contamination and to provide a measure of uninhibited growth of the microorganisms.
For determination of IC50 values (concentrations necessary to inhibit 50 percent growth of bacteria), peralkylated oligopeptide sets were added to the bacterial suspension at concentrations noted before. The plates were incubated overnight (about 18 hours) at 37° C., and the optical density (OD) determined at 620 nm after different times of incubation. IC50 values were then determined from the OD data.
Assays using S. aureus were carried out as described before. […] To initiate the exponential phase of bacterial growth prior to the assay, a sample of bacteria grown overnight (about 18 hours) at 37° C. in cation-adjusted Mueller Hinton broth (CAMM, for E. coli and S. aureus--Becton Dickinson Microbiology Systems, Cockeysville, Md.), or Brain Heart Infusion broth (BHI, for S. sanguis), was reinoculated in a 2X broth and incubated at 37° C. MRSA was grown at 35° C. in cation-adjusted MH broth in a similar manner. Prior to the assay, two colonies of newly grown C. albicans culture were inoculated in 5ml of phosphate buffer saline (PBS-35mM phosphate buffer, 0.15M NaCl-pH 7.0), and diluted in yeast medium broth. The bacteria and yeast suspensions were adjusted turbidimetrically so that a final concentration of 10^5 to 5×10^5 colony-forming units (CFU)/ml was used in all assays.
The plates were then incubated overnight at 37° C. […] The concentration necessary to inhibit 50 percent bacterial growth (IC50) was then calculated using the software program […] (ISI, San Diego, Calif.). […] In a similar manner, the plates containing C. albicans suspension were incubated for 48 hours at 30° C.

[2] = test system: Streptococcus sangus ATCC 10566; assay: Assays against S. sanguis (growth inhibition); format: cell-based, Streptococcus sanguis; conditions: for S. sanguis IC50 / S. sanguis MIC: Table 6
Protocol: The permethylated amino acid and peptides were screened against S. aureus and Streptoccus sanguis, as described below, and IC50 and MIC (minimum inhibitory concentration; minimum concentration needed to inhibit about 100 percent bacterial growth) values were determined. […]
(§1) Assays using S. aureus were carried out as described before. Methicillin-resistant Staphylococcus aureus (MRSA) ATCC 33591, Streptococcus sangus ATCC 10566, Escherichia coli ATCC 25922 and Candida albicans ATCC 10231 were used in the bioassays (ATCC, Rockville, Md.). To initiate the exponential phase of bacterial growth prior to the assay, a sample of bacteria grown overnight (about 18 hours) at 37° C. in cation-adjusted Mueller Hinton broth (CAMM, for E. coli and S. aureus--Becton Dickinson Microbiology Systems, Cockeysville, Md.), or Brain Heart Infusion broth (BHI, for S. sanguis), was reinoculated in a 2X broth and incubated at 37° C. MRSA was grown at 35° C. in cation-adjusted MH broth in a similar manner. Prior to the assay, two colonies of newly grown C. albicans culture were inoculated in 5ml of phosphate buffer saline (PBS-35mM phosphate buffer, 0.15M NaCl-pH 7.0), and diluted in yeast medium broth. The bacteria and yeast suspensions were adjusted turbidimetrically so that a final concentration of 10^5 to 5×10^5 colony-forming units (CFU)/ml was used in all assays.
(§2) The assays were carried out in 96-well tissue culture plates (Costar, Pleasanton, Calif.) as described in Blondelie et al., Biochemistry, 31:12688-12694 (1992), incorporated herein by reference. In brief, the bacterial suspension was added to an equal volume of the mixture of permeythylated compounds diluted in H2 O at concentrations derived from serial two-fold dilutions varying from 2500 μg/ml to 1 μg/ml. The plates were then incubated overnight at 37° C. The relative percent growth found for each compound (or mixture of compounds) was then determined by the optical density at 620 nm (OD620) using a Titertek Multiskan Plus apparatus (Flow Laboratories, McLean, Va.). The concentration necessary to inhibit 50 percent bacterial growth (IC50) was then calculated using the software program […] (ISI, San Diego, Calif.). […] In a similar manner, the plates containing C. albicans suspension were incubated for 48 hours at 30° C.

[3] = test system: human red blood cells (RBC's); assay: Hemolytic activity on human red blood cells; format: cell-based; conditions: 0.25 percent RBC suspension, one hour at 37° C.
Protocol: Hemolytic activities of the peptides were determined using human red blood cells (RBC's). The assays were carried out in 96-well tissue culture plates against a 0.25 percent RBC suspension as described in Blondelie et al., Biochim. Biophys. Acta, 1202:331-336 (1993), incorporated herein by reference. Briefly, individual permethylated peptides or peptide mixtures were added to the RBC solution at concentrations derived from serial two-fold dilutions varying from […]. Following a one hour incubation at 37° C., the plates were centrifuged at 2800 rpm for 5 minutes. The supernatant was separated from the pellet and its OD measured at 414 nm. Triton (1 percent) and PBS were used as 100 percent and 0 percent hemolysis controls, respectively.

[4] = Merck Index, 10th ed.; cited from earlier work
[5] = test system: Methicillin-resistant Staphylococcus aureus (MRSA) ATCC 33591; assay: Antimicrobial activity against MRSA (growth inhibition); format: cell-based; conditions: for MRSA MIC: no change in OD620 between time 0 and 21 hours
Protocol: as §1, §2

Row | Compound | % hemolysis at 350 μg/ml [3] | S. aureus IC50 [1] | MRSA IC50 [5] | MRSA MIC [5] | S. aureus MIC [1] | S. sanguis IC50 [2] | S. sanguis MIC [2] | also measured
1 | CC[C@H]1OC(=O)[C@H](C)[C@@H](O[C@H]2C[C@@](C)(OC)[C@@H](O)[C@H](C)O2)[C@H](C)[C@@H](O[C@@H]2O[C@H](C)C[C@H](N(C)C)[C@H]2O)[C@](C)(O)C[C@@H](C)C(=O)[C@H](C)[C@@H](O)[C@]1(C)O [Erythromycin, reference compound] | – | – | – | – | – | – | – | MIC [1]: 0.5 µM (≈ 0.367 µg/mL)
2 | Cc1onc(-c2ccccc2)c1C(=O)N[C@@H]1C(=O)N2[C@@H]1SC(C)(C)[C@@H]2C(=O)O [Oxacillin, reference compound] | – | – | – | – | – | – | – | MIC [1]: 0.125 µM (≈ 0.0502 µg/mL)
3 | CNC(=O)[C@H](Cc1ccccc1)[N+](C)(C)C [PerA-F, permethylated Phe N-methylamide] | – | – | – | – | – | – | – | MIC Value [1]: > 500 µM; MIC Value ([2]; Table 5): > 500 µM; IC50 ([2]; Table 5, average results): > 500 µM
4 | CNC(=O)[C@H](Cc1ccccc1)N(C)C(=O)[C@H](Cc1ccccc1)N(C)C(=O)[C@H](Cc1ccccc1)N(C)C(=O)[C@H](Cc1ccccc1)N(C)C(=O)[C@H](Cc1ccccc1)N(C)C(=O)[C@H](Cc1ccccc1)[N+](C)(C)C [PerA-FFFFFF, PerM-PhePhePhePhePhePhe] (X1-[NMeF][NMeF][NMeF][NMeF][NMeF]-NHMe) | 16% | – | – | – | – | – | – | S. aureus MIC ([1]; listed as permethylated FFFFFF-NH2): lower than 15 μg/ml
5 | CC[C@H](C)[C@@H](C(=O)N(C)[C@@H](Cc1ccccc1)C(=O)N(C)[C@@H](Cc1ccccc1)C(=O)N(C)[C@@H](Cc1ccccc1)C(=O)NC)N(C)C(=O)[C@H](Cc1ccccc1)N(C)C(=O)[C@H](Cc1ccccc1)[N+](C)(C)C [PerM-FFIFFF, PerM-PhePheIlePhePhePhe] (X1-[NMeF][NMeI][NMeF][NMeF][NMeF]-NHMe) | 0% | – | – | – | – | – | – | S. aureus MIC ([1]; listed as permethylated FFIFFF-NH2): lower than 15 μg/ml
6 | CNC(=O)[C@H](Cc1ccccc1)N(C)C(=O)[C@H](Cc1ccccc1)N(C)C(=O)[C@H](Cc1ccccc1)N(C)C(=O)[C@H](Cc1ccccc1)N(C)C(=O)[C@H](Cc1ccccc1)N(C)C(=O)[C@H](CC(C)C)[N+](C)(C)C [PerM-LFFFFF, PerM-LeuPhePhePhePhePhe] (X2-[NMeF][NMeF][NMeF][NMeF][NMeF]-NHMe) | 10% | – | – | – | – | – | – | –
7 | CC[C@H](C)[C@@H](C(=O)N(C)[C@@H](Cc1ccccc1)C(=O)N(C)[C@@H](Cc1ccccc1)C(=O)N(C)[C@@H](Cc1ccccc1)C(=O)NC)N(C)C(=O)[C@H](Cc1ccccc1)N(C)C(=O)[C@H](CC(C)C)[N+](C)(C)C [PerM-LFIFFF, PerM-LeuPheIlePhePhePhe] (X2-[NMeF][NMeI][NMeF][NMeF][NMeF]-NHMe) | 12% | – | – | – | – | – | – | S. aureus MIC ([1]; listed as permethylated LFIFFF-NH2): lower than 15 μg/ml
8 | CC(=O)[C@H]1CC[C@H]2[C@@H]3CCC4=CC(=O)CC[C@]4(C)[C@H]3CC[C@]12C [progesterone] | – | – | – | – | – | – | – | solubility in water [4]: insoluble in water
9 | C[N+](C)(C)[C@@H](Cc1ccccc1)C(=O)N[C@@H](Cc1ccccc1)C(=O)N[C@@H](Cc1ccccc1)C(=O)N[C@@H](Cc1ccccc1)C(=O)N[C@@H](Cc1ccccc1)C(=O)N[C@@H](Cc1ccccc1)C(N)=O [reference compound] (X1-FFFFF-NH2) | – | > 250 µg/mL | – | – | – | – | – | –
10 | C[C@]12CC[C@H]3[C@@H](CCC4=CC(=O)CC[C@@]43C)[C@@H]1CC[C@@H]2O [testosterone] | – | – | – | – | – | – | – | solubility in water [4]: insoluble in water
11 | N-acetyl hexaPhe amide [N-Ac-hexaPhe, reference compound] | – | – | – | – | – | – | – | MIC Value [1]: > 500 µM
12 | PerM-LeuPheIlePheHisPhe (LFIFHF; also: permethylated) [PerM-LFIFHF] | 7% | 12 µg/mL | 14 µg/mL | 15 to 21 µg/mL | 21 to 31 µg/mL | 13 µg/mL | 20 to 40 µg/mL | –
13 | PerM-LeuPheIlePhePheHis (LFIFFH; also: permethylated) [PerM-LFIFFH] | 1% | 12 µg/mL | 20 µg/mL | 25 to 42 µg/mL | 21 to 31 µg/mL | 19 µg/mL | 30 to 40 µg/mL | –
14 | PerM-LeuPhePhePheHisPhe (LFFFHF; also: permethylated) [PerM-LFFFHF] | 4% | 12 µg/mL | 13 µg/mL | 15 to 21 µg/mL | 21 to 31 µg/mL | 19 µg/mL | 30 to 40 µg/mL | –
15 | PerM-LeuPhePhePhePheHis (LFFFFH; also: permethylated) [PerM-LFFFFH] | 3% | 13 µg/mL | 16 µg/mL | 21 to 42 µg/mL | 21 to 42 µg/mL | 22 µg/mL | 30 to 40 µg/mL | –
16 | PerM-PhePheIlePhePheHis (FFIFFH; also: permethylated) [PerM-FFIFFH] | 0% | 14 µg/mL | 19 µg/mL | 21 to 42 µg/mL | 31 to 42 µg/mL | 18 µg/mL | 30 to 40 µg/mL | –
17 | PerM-PhePhePhePheHisPhe (FFFFHF; also: permethylated) [PerM-FFFFHF] | 3% | 11 µg/mL | 18 µg/mL | 21 to 42 µg/mL | 15 to 21 µg/mL | 19 µg/mL | 30 to 40 µg/mL | –
